Experimental data: patent publication US20210154210A1, “Ophthalmic Formulations and Uses Thereof” (priority 2018, published 2021)

Test system: corneal endothelial cells
Experiment: Corneal endothelial cell counting by specular microscopy
Format: in vivo, rabbits
Conditions: for higher cell density compared to negative control group / higher cell density compared to placebo group: 25 ng/mL (group B); for degeneration rate / effect on slowing down and stopping apoptosis and/or autophagy: 25 ng/mL
Source text: All experiments were designed and carried out in a randomized, double blind manner using placebos. Rabbits were housed for one week prior to the study, fed on standard laboratory food and allowed free access to water in a room at standard temperature and humidity conditions in a 12-h light/12-h dark cycle.
Counting Corneal Cell number:
Any excess was discarded, and a fresh batch prepared for the next 15-days. Effects of the eye drop on corneal endothelium as well as cell numbers and shapes were observed by means of specular microscopy (NIDEK-CEM 530, Japan) at the end of months 0, 1, 3 and 6. Rabbits were euthanatized by an intravenous injection of Tanax (0.3 mL/kg). Vitreous (0.2 mL) was aspirated with a 25-gauge needle attached to a 5-mL disposable syringe, driven at 3.0 mm from the limbus, and guided toward the center of the eyeball, taking care to avoid bleeding when the needle was introduced (vitreous samples were stored at −80° C. until the analysis). Eye tissue was fixed with 4% formaldehyde and embedded in paraffin for histopathological assessment. The individual values for three replicates were determined and the mean values were reported.
All analyses were carried out using GraphPad Prism 5.0 (GraphPad Software, San Diego, Calif., USA). Differences were considered to be significant at a level of P 0.001.

[1] = compared to the negative control group

CC(C)(O)[C@@H]1CC[C@](C)([C@H]2[C@@H](O)C[C@@]3(C)[C@@H]4C[C@H](O)[C@H]5C(C)(C)[C@@H](O)CC[C@@]56C[C@@]46CC[C@]23C)O1 [cycloastragenol, Cycloastragenol]
higher cell density compared to negative control group (month 1): about 4% | higher cell density compared to placebo group (month 1): about 4% | higher cell density compared to negative control group (month 3): ~18% | higher cell density compared to placebo group (month 3): ~18% | higher cell density compared to negative control group (month 6): ~19% | higher cell density compared to placebo group (month 6): ~20% | degeneration rate [1]: 0% | effect on slowing down and stopping apoptosis and/or autophagy [1]: 100% | degeneration rate (compared to the placebo group): 0% | effect on slowing down and stopping apoptosis and/or autophagy (compared to the placebo group): 100%
